According to US20260158177A1, “COMPOUNDS SPECIFIC TO GRANZYME B AND USES THEREOF” (CYTOSITE BIOPHARMA INC., priority 2021, published 2026):
Numbered stars: 1 amine (or outer) side, 2 acyl side, 3 side chain; on linkers, the order of the positions; unused ones are H or OH. Square brackets hold non-standard residues; d marks the D form. Peptide text beside a SMILES is read from it. * marks the point of attachment. X2 = O=C1CN2CCN(CCN(CC3CCN(CC(=O)*)CC3)CC2)CC(=O)[O][Al]([F])[O]1; NOTA(AlF) = O=C1CN2CCN(CCN(CC(=O)*)CC2)CC(=O)[O][Al]([F])[O]1; Haic = O=C1[C@@H](N[*:1])CCc2cccc3c2N1[C@H](C(=O)[*:2])C3; NH(5-HO-2-oxo-oxolan-4-yl) = O=C1CC(N*)C(O)O1; X1 = O=C(CN1CCN([*:1])CC1)[*:2]

Target: T1, human granzyme B (Homo sapiens, UniProt P10144)
T1 construct: from tissue; host or cells: human lymphocytes
T1 sequence (P10144 21-247): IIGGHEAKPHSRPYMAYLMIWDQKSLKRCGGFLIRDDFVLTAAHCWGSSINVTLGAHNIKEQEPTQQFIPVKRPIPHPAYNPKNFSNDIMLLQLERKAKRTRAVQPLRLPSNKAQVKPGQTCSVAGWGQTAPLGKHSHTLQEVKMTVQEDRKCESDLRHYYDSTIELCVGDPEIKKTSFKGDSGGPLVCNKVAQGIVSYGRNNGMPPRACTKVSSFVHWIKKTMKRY
Assay: Competitive binding assay of human granzyme B with Compound ^18F-21-Al radioligand
Settings: competition with 20 nM Compound ^18F-21-Al, human lymphocyte GZB, 37° C., 90 minutes
Procedure: Purpose: To perform competitive binding assays with human granzyme B using Compound ^18F-21-Al to determine IC50 values of potential granzyme B ligands
Initial Plate Preparation (including total binding and non-specific binding): • 1. 78 μL of reaction buffer, as described above, is added to each well in a 96 well plate • 2. For wells used to examine total binding (defined as the binding of the radioligand in the absence of competitors), 2 μL of DMSO is added to give 1% final DMSO concentration for all wells • 3. For wells used to examine non-specific binding (defined as the binding of the radioligand in the presence of 10 μM 21), 2 μL of 1 mM Compound 21 is added to give a final concentration of 10 μM
• 1. Granzyme B (GZB, human lymphocyte) is diluted to 0.5 μg/mL using reaction buffer as described above • 2. 100 μL of 0.5 μg/mL diluted human GzB is added to each well, giving 50 ng per well and a final concentration of 0.25 μg/mL
• 1. DMSO or water is added to the respective compound vial to make 1 mM compound stock solution • 2. 1 mM compound stock solution is serially diluted by ½ log (3.16 fold) by adding 18.5 μL of compound stock to 40 μL of DMSO, mixing by pipetting up and down, and transferring 18.5 μL of the mixture to 40 μL of DMSO. This process is repeated to create 10 dilution points for test compounds. • 3. For wells used to examine ligand binding competition, 2 μL of each dilution is dispensed into the 96 well plates prepared as described above, giving a further dilution of 1/100.
• 1. 200 nM of Compound ^18F-21-Al (10× radioligand stock) is prepared in reaction buffer, aiming for approximately 2 million CPM per 20 μL of solution (input). • 2. 20 μL of radioligand stock is dispensed into each well to give a final concentration per well of 20 nM.
• 1. All 96 wells should have a final volume of 200 μL, and the assay plates are incubated at 37° C. for 90 minutes. • 2. All samples from the assay plates are transferred to MultiScreenHTS FB plates that have been presoaked in PBS buffer, pH 7.4, and filtered using a vacuum manifold. An additional 150 μL of PBS buffer is added to each well in the assay plates and combined to ensure transfer of any remaining samples • 3. MultiScreenHTS FB plates are washed 3× with 150 μL of PBS buffer. • 4. All filters are separated and transferred to individual tubes using Multiscreen punch tips and the Millipore multiple punch apparatus • 5. The sample set is analyzed using the Wizard 2480 automatic gamma-counter [Perkin Elmer] through a [^18F]-specific profile. Values are reported as decay-corrected counts per minute (CPM). • 6. Resulting CPM values are normalized and converted to % inhibition by the following equation:
[formula] • *the total bound fraction is typically less than 10% of the added radioligand under such assay conditions. • Resulting % inhibition values were plotted using the software GraphPad Prism 8.4.3 using the One site—Fit log IC50 equation to determine the IC50 value for each ligand.
[formula] • Y=% Inhibition • X=Log concentration of the cold competing ligand (M) • A=minimum Y (0%) • B=maximum Y (100%) • Log IC50=Log concentration of cold competing ligand (M) at half-way between minimum and maximum Y

Row | Compound | IC50 [nM]
1 | CC[C@H](C)[C@H](NC(=O)CCNC(=O)CCNC(=O)[C@@H](CCC(=O)O)NC(=O)CN1CCC(CN2CCN3CCN(CC2)CC(=O)[O][Al]([F])[O]C(=O)C3)CC1)C(=O)N[C@H]1CCc2cccc3c2N(C1=O)[C@H](C(=O)NC1CC(=O)OC1O)C3 (stereo partly drawn) [Compound 1-Al, 2,2′-(7-((1-((4R,15S,16S)-4-(2-carboxyethyl)-15-(((3S,6S)-6-((2-hydroxy-5-oxotetrahydrofuran-3-yl)carbamoyl)-4-oxo-1,2,3,4,6,7-hexahydroazepino[3,2,1-hi]indol-3-yl)carbamoyl)-16-methyl-2,5,9,13-tetraoxo-3,6,10,14-tetraazaoctadecyl)piperidin-4-yl)methyl)-1,4,7-triazonane-1,4-diyl)diacetic acid, aluminum fluoride complex (1:1)] | 5.7
2 | CC[C@H](C)[C@H](NC(=O)CNC(=O)CNC(=O)[C@H](CCC(=O)O)NC(=O)CN1CCC(CN2CCN3CCN(CC2)CC(=O)[O][Al]([F])[O]C(=O)C3)CC1)C(=O)N[C@H]1CCc2cccc3c2N(C1=O)[C@H](C(=O)NC1CC(=O)OC1O)C3 (stereo partly drawn) [Compound 2-Al, 2,2′-(7-((1-((4S,13S,14S)-4-(2-carboxyethyl)-13-(((3S,6S)-6-((2-hydroxy-5-oxotetrahydrofuran-3-yl)carbamoyl)-4-oxo-1,2,3,4,6,7-hexahydroazepino[3,2,1-hi]indol-3-yl)carbamoyl)-14-methyl-2,5,8,11-tetraoxo-3,6,9,12-tetraazahexadecyl)piperidin-4-yl)methyl)-1,4,7-triazonane-1,4-diyl)diacetic acid aluminum fluoride complex (1:1)] (X2-EGGI[Haic]-{NH(5-HO-2-oxo-oxolan-4-yl)}) | 7.5
3 | CC[C@H](C)[C@H](NC(=O)CCNC(=O)CN(CC(=O)O)C(=O)CCNC(=O)CN1CCC(CN2CCN3CCN(CC2)CC(=O)[O][Al]([F])[O]C(=O)C3)CC1)C(=O)N[C@H]1CCc2cccc3c2N(C1=O)[C@H](C(=O)NC1CC(=O)OC1O)C3 (stereo partly drawn) [Compound 3-Al, 2,2′-(7-((1-((15S,16S)-7-(carboxymethyl)-15-(((3S,6S)-6-((2-hydroxy-5-oxotetrahydrofuran-3-yl)carbamoyl)-4-oxo-1,2,3,4,6,7-hexahydroazepino[3,2,1-hi]indol-3-yl)carbamoyl)-16-methyl-2,6,9,13-tetraoxo-3,7,10,14-tetraazaoctadecyl)piperidin-4-yl)methyl)-1,4,7-triazonane-1,4-diyl)diacetic acid, aluminum fluoride complex (1:1)] | 4.7
4 | CC[C@H](C)[C@H](NC(=O)COCCNC(=O)[C@@H](CCC(=O)O)NC(=O)[C@@H](CCC(=O)O)NC(=O)CN1CCC(CN2CCN3CCN(CC2)CC(=O)[O][Al]([F])[O]C(=O)C3)CC1)C(=O)N[C@H]1CCc2cccc3c2N(C1=O)[C@H](C(=O)NC1CC(=O)OC1O)C3 (stereo partly drawn) [Compound 4-Al, 2,2′-(7-((1-((4R,7R,16S,17S)-4,7-bis(2-carboxyethyl)-16-(((3S,6S)-6-((2-hydroxy-5-oxotetrahydrofuran-3-yl)carbamoyl)-4-oxo-1,2,3,4,6,7-hexahydroazepino[3,2,1-hi]indol-3-yl)carbamoyl)-17-methyl-2,5,8,14-tetraoxo-12-oxa-3,6,9,15-tetraazanonadecyl)piperidin-4-yl)methyl)-1,4,7-triazonane-1,4-diyl)diacetic acid, aluminum fluoride complex (1:1)] | 2.8
5 | CC[C@H](C)[C@H](NC(=O)CCNC(=O)CCNC(=O)CN(CC(=O)O)C(=O)CN1CCC(CN2CCN3CCN(CC2)CC(=O)[O][Al]([F])[O]C(=O)C3)CC1)C(=O)N[C@H]1CCc2cccc3c2N(C1=O)[C@H](C(=O)NC1CC(=O)OC1O)C3 (stereo partly drawn) [Compound 5-Al, 2,2′-(7-((1-((15S,16S)-3-(carboxymethyl)-15-(((3S,6S)-6-((2-hydroxy-5-oxotetrahydrofuran-3-yl)carbamoyl)-4-oxo-1,2,3,4,6,7-hexahydroazepino[3,2,1-hi]indol-3-yl)carbamoyl)-16-methyl-2,5,9,13-tetraoxo-3,6,10,14-tetraazaoctadecyl)piperidin-4-yl)methyl)-1,4,7-triazonane-1,4-diyl)diacetic acid, aluminum fluoride complex (1:1)] | 5.7
6 | CC[C@H](C)[C@H](NC(=O)CCNC(=O)CC[C@H](NC(=O)CN1CCC(CN2CCN3CCN(CC2)CC(=O)[O][Al]([F])[O]C(=O)C3)CC1)C(=O)O)C(=O)N[C@H]1CCc2cccc3c2N(C1=O)[C@H](C(=O)NC1CC(=O)OC1O)C3 (stereo partly drawn) [Compound 6-Al, 2,2′-(7-((1-(2-(((1S)-1-carboxy-4-((3-(((2S,3S)-1-(((3S,6S)-6-((2-hydroxy-5-oxotetrahydrofuran-3-yl)carbamoyl)-4-oxo-1,2,3,4,6,7-hexahydroazepino[3,2,1-hi]indol-3-yl)amino)-3-methyl-1-oxopentan-2-yl)amino)-3-oxopropyl)amino)-4-oxobutyl)amino)-2-oxoethyl)piperidin-4-yl)methyl)-1,4,7-triazonane-1,4-diyl)diacetic acid, aluminum fluoride complex (1:1)] | 4.5
7 | CC[C@H](C)[C@H](NC(=O)CCNC(=O)[C@@H](CCC(=O)O)NC(=O)CCNC(=O)CN1CCC(CN2CCN3CCN(CC2)CC(=O)[O][Al]([F])[O]C(=O)C3)CC1)C(=O)N[C@H]1CCc2cccc3c2N(C1=O)[C@H](C(=O)NC1CC(=O)OC1O)C3 (stereo partly drawn) [Compound 7-Al, 2,2′-(7-((1-((8R,15S,16S)-8-(2-carboxyethyl)-15-(((3S,6S)-6-((2-hydroxy-5-oxotetrahydrofuran-3-yl)carbamoyl)-4-oxo-1,2,3,4,6,7-hexahydroazepino[3,2,1-hi]indol-3-yl)carbamoyl)-16-methyl-2,6,9,13-tetraoxo-3,7,10,14-tetraazaoctadecyl)piperidin-4-yl)methyl)-1,4,7-triazonane-1,4-diyl)diacetic acid, aluminum fluoride complex (1:1)] | 6.7
8 | CC[C@H](C)[C@H](NC(=O)CNC(=O)CNC(=O)[C@H](CCC(=O)O)NC(=O)CN1CCN(C(=O)CN2CCN3CCN(CC2)CC(=O)[O][Al]([F])[O]C(=O)C3)CC1)C(=O)N[C@H]1CCc2cccc3c2N(C1=O)[C@H](C(=O)NC1CC(=O)OC1O)C3 (stereo partly drawn) [Compound 8-Al, 2,2′-(7-(2-(4-((4S,13S,14S)-4-(2-carboxyethyl)-13-(((3S,6S)-6-((2-hydroxy-5-oxotetrahydrofuran-3-yl)carbamoyl)-4-oxo-1,2,3,4,6,7-hexahydroazepino[3,2,1-hi]indol-3-yl)carbamoyl)-14-methyl-2,5,8,11-tetraoxo-3,6,9,12-tetraazahexadecyl)piperazin-1-yl)-2-oxoethyl)-1,4,7-triazonane-1,4-diyl)diacetic acid, aluminum fluoride complex (1:1)] ({NOTA(AlF)}-[X1]EGGI[Haic]-{NH(5-HO-2-oxo-oxolan-4-yl)}) | 6.5
9 | CC[C@H](C)[C@H](NC(=O)COCCNC(=O)[C@@H](CCC(=O)O)NC(=O)CN1CCN(C(=O)CN2CCN3CCN(CC2)CC(=O)[O][Al]([F])[O]C(=O)C3)CC1)C(=O)N[C@H]1CCc2cccc3c2N(C1=O)[C@H](C(=O)NC1CC(=O)OC1O)C3 (stereo partly drawn) [Compound 9-Al, 2,2′-(7-(2-(4-((4R,13S,14S)-4-(2-carboxyethyl)-13-(((3S,6S)-6-((2-hydroxy-5-oxotetrahydrofuran-3-yl)carbamoyl)-4-oxo-1,2,3,4,6,7-hexahydroazepino[3,2,1-hi]indol-3-yl)carbamoyl)-14-methyl-2,5,11-trioxo-9-oxa-3,6,12-triazahexadecyl)piperazin-1-yl)-2-oxoethyl)-1,4,7-triazonane-1,4-diyl)diacetic acid, aluminum fluoride complex (1:1)] | 3.5 ± 0.78
